Measured values from paper PMC12196347, “Evaluating Triazole-Substituted Pyrrolopyrimidines as CSF1R Inhibitors” (Molecules, 2025).
≈ marks a conversion by molar mass, not a printed value.

Legend:
[1] = Mouse plasma protein binding; format: in vitro ADME; conditions: fraction bound, read-out: PPB (converted)
[2] = target: T1, CSF1R (Homo sapiens, UniProt P07333); test: CSF1R enzymatic inhibition, TR-FRET-based LANCE Ultra assay; format: biochemical; conditions: single 8-point titrations, ATP concentration 25 µM, read-out: Enz. IC50
T1 sequence (P07333 539-972 limits assumed): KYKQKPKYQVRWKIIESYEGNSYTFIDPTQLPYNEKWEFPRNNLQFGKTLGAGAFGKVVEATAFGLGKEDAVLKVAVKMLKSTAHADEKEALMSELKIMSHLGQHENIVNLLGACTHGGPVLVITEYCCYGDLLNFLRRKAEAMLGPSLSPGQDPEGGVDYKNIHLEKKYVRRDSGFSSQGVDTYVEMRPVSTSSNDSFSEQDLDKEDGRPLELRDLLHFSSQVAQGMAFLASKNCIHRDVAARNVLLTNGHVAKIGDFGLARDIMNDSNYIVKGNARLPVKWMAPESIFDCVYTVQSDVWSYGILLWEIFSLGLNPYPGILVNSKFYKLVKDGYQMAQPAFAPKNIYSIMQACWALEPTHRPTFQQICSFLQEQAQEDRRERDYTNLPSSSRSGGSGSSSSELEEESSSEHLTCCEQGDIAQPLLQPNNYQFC

[3] = tested on: CSF1R Ba/F3 cells; test: Cell viability assay, Ba/F3 cells engineered to be dependent on CSF1R; format: cell-based; conditions: duplicate measurements
[4] = tested on: IL-3 dependent Ba/F3 cell line (CSF1R independent); test: Control assay for cellular toxicity, Ba/F3 cells dependent on IL-3; format: cell-based; conditions: Mus musculus, BaF3; Ba/F3 cells dependent on IL-3, control for cellular toxicity
[5] = Kinetic solubility, spectrophotometric; format: physicochemical; conditions: aqueous buffer, kinetic from dmso stock, spectrophotometrically at pH 7.4 in HEPES buffer
[6] = target: CSF1R (Homo sapiens, UniProt P07333); test: CSF1R enzymatic IC50, Z-LYTE assay platform; format: biochemical; conditions: for Hill coefficient: Z-LYTE CSF1R IC50 curve; for IC50: Z-LYTE, 10-point titrations in duplicates, ATP equal to KM ca. 10 µM, read-out: CSF1R enz. IC50
Target sequence in this assay (P07333 20-972): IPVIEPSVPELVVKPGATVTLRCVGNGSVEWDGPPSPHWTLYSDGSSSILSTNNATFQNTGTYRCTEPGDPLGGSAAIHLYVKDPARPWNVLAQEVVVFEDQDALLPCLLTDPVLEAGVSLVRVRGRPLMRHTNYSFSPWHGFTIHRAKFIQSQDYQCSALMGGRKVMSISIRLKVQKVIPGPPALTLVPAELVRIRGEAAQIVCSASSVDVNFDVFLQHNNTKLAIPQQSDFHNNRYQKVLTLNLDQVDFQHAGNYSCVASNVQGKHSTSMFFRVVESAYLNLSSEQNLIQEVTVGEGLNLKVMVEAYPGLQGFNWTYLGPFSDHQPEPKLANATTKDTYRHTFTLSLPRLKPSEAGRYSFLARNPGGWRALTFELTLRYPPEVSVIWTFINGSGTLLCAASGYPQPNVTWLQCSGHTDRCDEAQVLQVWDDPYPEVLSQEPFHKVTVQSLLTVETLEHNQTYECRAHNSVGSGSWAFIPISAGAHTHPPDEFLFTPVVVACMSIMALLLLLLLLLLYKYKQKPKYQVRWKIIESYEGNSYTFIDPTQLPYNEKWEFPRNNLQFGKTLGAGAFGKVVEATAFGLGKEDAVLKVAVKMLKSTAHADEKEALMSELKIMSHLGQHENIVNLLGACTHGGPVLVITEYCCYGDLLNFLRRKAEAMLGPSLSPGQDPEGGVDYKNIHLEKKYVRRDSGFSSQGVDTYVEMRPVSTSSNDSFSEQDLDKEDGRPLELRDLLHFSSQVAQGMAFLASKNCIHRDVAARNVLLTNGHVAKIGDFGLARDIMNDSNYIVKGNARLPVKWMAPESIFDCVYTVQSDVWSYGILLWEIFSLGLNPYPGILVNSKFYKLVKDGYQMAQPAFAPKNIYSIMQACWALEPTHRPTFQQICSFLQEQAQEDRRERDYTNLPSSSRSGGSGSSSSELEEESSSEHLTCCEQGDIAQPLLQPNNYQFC

[7] = target: T2, cKIT kinase (Homo sapiens, UniProt P10721); test: KIT inhibition (KD), TR-FRET tracer displacement; format: binding; conditions: kinase tracer 236, anti-GST antibody Eu-conjugate, read-out: KIT enz. KD
T2 construct: purchased Carna Biosciences

[8] = tested on: KIT-positive cell line GIST-T1; test: GIST-T1 CellTiter-Glo cell viability assay; format: cell-based; conditions: Homo sapiens, GISTT1; cellular proliferation, GIST-T1, 72 h
[9] = Human liver microsome intrinsic clearance, Phase I; format: in vitro ADME; conditions: in vitro intrinsic clearance
[10] = Mouse liver microsome intrinsic clearance, Phase I; format: in vitro ADME; conditions: in vitro intrinsic clearance
[11] = MDCK permeability assay; format: in vitro ADME, canine; conditions: dog, MDCK cell monolayer; for Papp A→B: A-B direction; for Papp B→A: B-A direction; for efflux ratio: read-out: Ratio Papp B > A/Papp A > B
[12] = Caco-2 permeability assay; format: in vitro ADME; conditions: human; Caco-2 cell assay
[13] = Mus musculus, BaF3, Ba/F3 cells dependent on CSF1R

T2 sequence (P10721 26-976): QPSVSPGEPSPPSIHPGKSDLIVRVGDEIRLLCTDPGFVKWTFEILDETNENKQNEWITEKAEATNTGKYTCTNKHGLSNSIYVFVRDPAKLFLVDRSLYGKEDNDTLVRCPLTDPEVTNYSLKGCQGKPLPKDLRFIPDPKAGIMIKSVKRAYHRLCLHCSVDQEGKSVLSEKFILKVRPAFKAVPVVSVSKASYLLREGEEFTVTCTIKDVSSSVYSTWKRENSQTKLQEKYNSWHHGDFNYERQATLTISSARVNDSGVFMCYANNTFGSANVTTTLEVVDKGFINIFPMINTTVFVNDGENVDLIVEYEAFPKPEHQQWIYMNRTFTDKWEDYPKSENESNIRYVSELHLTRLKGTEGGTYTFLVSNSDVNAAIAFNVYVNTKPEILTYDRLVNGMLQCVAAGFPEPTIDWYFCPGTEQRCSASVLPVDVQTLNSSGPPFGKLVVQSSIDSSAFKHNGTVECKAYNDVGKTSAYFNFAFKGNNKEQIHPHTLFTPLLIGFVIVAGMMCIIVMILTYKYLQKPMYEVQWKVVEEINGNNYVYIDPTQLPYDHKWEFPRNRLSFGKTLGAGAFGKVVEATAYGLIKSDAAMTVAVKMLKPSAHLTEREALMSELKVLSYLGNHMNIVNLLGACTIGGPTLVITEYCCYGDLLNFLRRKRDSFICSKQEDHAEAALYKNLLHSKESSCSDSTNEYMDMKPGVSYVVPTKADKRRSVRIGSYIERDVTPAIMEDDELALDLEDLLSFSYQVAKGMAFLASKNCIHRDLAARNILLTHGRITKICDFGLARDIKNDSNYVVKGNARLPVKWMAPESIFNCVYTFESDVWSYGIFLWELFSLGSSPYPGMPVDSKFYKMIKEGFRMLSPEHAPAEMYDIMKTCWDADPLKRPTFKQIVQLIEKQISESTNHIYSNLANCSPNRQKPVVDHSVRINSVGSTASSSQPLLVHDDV

fraction unbound [1] | IC50 [2] [nM] | IC50 [3, 13] [nM] | solubility kinetic [5] [µM] | SMILES | IC50 [4] [nM] | also measured
0.236 | – | – | – | CN(CC1CCOCC1)c1ncnc2[nH]c(-c3ccc(N)cc3)cc12 [Structure IV, reference compound] | – | –
0.025 | < 1 | 1000 | 10.6 (≈ 4.43 µg/mL) | Cc1ccc(Cn2cc(-c3cc4c(N(C)CC5CCOCC5)ncnc4[nH]3)nn2)cc1 [Compound 25b, N-Methyl-6-(1-(4-methylbenzyl)-1H-1,2,3-triazol-4-yl)-N-((tetrahydro-2H-pyran-4-yl)methyl)-7H-pyrrolo[2,3-d]pyrimidin-4-amine] | > 10000 | IC50 ([3]; Ba/F3 cells dependent on CSF1R): 500 nM; Hill coefficient [6]: 0.981; IC50 [6]: 1.3 nM; Kd [7]: > 100 nM; IC50 [8]: > 3000 nM; HLM [9]: 62.4 µL/min/mg; MLM [10]: 1980 µL/min/mg; Papp A→B [11]: 10 ×10⁻⁶ cm/s; Papp B→A [11]: 25.4 ×10⁻⁶ cm/s; efflux ratio [11]: 2.6
– | – | – | – | Cc1cccc(CN(C)c2ncnc3[nH]c(-c4ccc(CO)cc4)cc23)c1 [Structure III] | – | Papp A→B [12]: 0.69 ×10⁻⁶ cm/s; Papp B→A [12]: 0.19 ×10⁻⁶ cm/s
– | < 1 | 1000 ± 200 | 45 (≈ 18.5 µg/mL) | CN(CC1CCOCC1)c1ncnc2[nH]c(-c3cn(CC4CCOCC4)nn3)cc12 [Compound 31b, N-Methyl-N-((tetrahydro-2H-pyran-4-yl)methyl)-6-(1-((tetrahydro-2H-pyran-4-yl)methyl)-1H-1,2,3-triazol-4-yl)-7H-pyrrolo[2,3-d]pyrimidin-4-amine] | > 10000 | –
– | 5.9 | 6000 | 1.3 (≈ 0.553 µg/mL) | COc1ccc(-n2cc(-c3cc4c(N(C)Cc5cccc(C)c5)ncnc4[nH]3)nn2)cc1 [Compound 21a, 6-(1-(4-Methoxyphenyl)-1H-1,2,3-triazol-4-yl)-N-methyl-N-(3-methylbenzyl)-7H-pyrrolo[2,3-d]pyrimidin-4-amine] | > 10000 | –
– | < 1 | 2400 ± 500 | 42 (≈ 17.2 µg/mL) | CN1CCC(n2cc(-c3cc4c(N(C)CC5CCOCC5)ncnc4[nH]3)nn2)CC1 [Compound 30b, N-Methyl-6-(1-(1-methylpiperidin-4-yl)-1H-1,2,3-triazol-4-yl)-N-((tetrahydro-2H-pyran-4-yl)methyl)-7H-pyrrolo[2,3-d]pyrimidin-4-amine] | > 10000 | –
– | < 1 | 1500 ± 500 | 7.2 (≈ 3.12 µg/mL) | COc1ccc(Cn2cc(-c3cc4c(N(C)CC5CCOCC5)ncnc4[nH]3)nn2)cc1 [Compound 26b, 6-(1-(4-Methoxybenzyl)-1H-1,2,3-triazol-4-yl)-N-methyl-N-((tetrahydro-2H-pyran-4-yl)methyl)-7H-pyrrolo[2,3-d]pyrimidin-4-amine] | > 10000 | –
– | 1.9 | > 10000 | 0.3 (≈ 0.119 µg/mL) | Cc1cccc(CN(C)c2ncnc3[nH]c(-c4cn(-c5ccccc5)nn4)cc23)c1 [Compound 18a, N-Methyl-N-(3-methylbenzyl)-6-(1-phenyl-1H-1,2,3-triazol-4-yl)-7H-pyrrolo[2,3-d]pyrimidin-4-amine] | > 10000 | –
0.24 | 3 | 600 ± 200 | 7.3 (≈ 3.06 µg/mL) | COc1ccc(-n2cc(-c3cc4c(N(C)CC5CCOCC5)ncnc4[nH]3)nn2)cc1 [Compound 21b, 6-(1-(4-Methoxyphenyl)-1H-1,2,3-triazol-4-yl)-N-methyl-N-((tetrahydro-2H-pyran-4-yl)methyl)-7H-pyrrolo[2,3-d]pyrimidin-4-amine] | > 10000 | Hill coefficient [6]: 0.913; IC50 [6]: 1.2 ± 0.3 nM; Kd [7]: > 1000 nM; IC50 [8]: > 30000 nM; HLM [9]: 74.5 µL/min/mg; MLM [10]: 288 µL/min/mg; Papp A→B [11]: 10.7 ×10⁻⁶ cm/s; Papp B→A [11]: 13.6 ×10⁻⁶ cm/s; efflux ratio [11]: 1.3
< 0.01 | 1.8 | 1700 ± 100 | 43 (≈ 17.4 µg/mL) | CN(CC1CCOCC1)c1ncnc2[nH]c(-c3cn(Cc4cccnc4)nn3)cc12 [Compound 27b, N-Methyl-6-(1-(pyridin-3-ylmethyl)-1H-1,2,3-triazol-4-yl)-N-((tetrahydro-2H-pyran-4-yl)methyl)-7H-pyrrolo[2,3-d]pyrimidin-4-amine] | > 10000 | –

SMILES | fraction unbound [1] | IC50 [2] [nM] | IC50 [3, 13] [nM] | solubility kinetic [5] [µM] | IC50 [4] [nM] | also measured
FC(F)(F)c1ccc(CNc2ccc(Cc3c[nH]c4ncc(Cl)cc34)cn2)cn1 [PLX-3397, pexidartinib, reference compound] | < 0.01 | – | 60 ± 100 | – | > 10000 | Hill coefficient [6]: 1.18; IC50 [8]: 30 nM
